Consider seven molecules from patent publication US20220280476A1, “KCNT1 INHIBITORS AND METHODS OF USE” (Praxis Precision Medicines, Inc., priority 2019, published 2022).

The test has as its target T1, KCNT1 (KNa1.1, Slack) (Homo sapiens, UniProt Q5JUK3).
T1 construct: expressed in transfected cells; host or cells: HEK-TREX (tetracycline-inducible HEK cell line)
T1 sequence (Q5JUK3 1-1230): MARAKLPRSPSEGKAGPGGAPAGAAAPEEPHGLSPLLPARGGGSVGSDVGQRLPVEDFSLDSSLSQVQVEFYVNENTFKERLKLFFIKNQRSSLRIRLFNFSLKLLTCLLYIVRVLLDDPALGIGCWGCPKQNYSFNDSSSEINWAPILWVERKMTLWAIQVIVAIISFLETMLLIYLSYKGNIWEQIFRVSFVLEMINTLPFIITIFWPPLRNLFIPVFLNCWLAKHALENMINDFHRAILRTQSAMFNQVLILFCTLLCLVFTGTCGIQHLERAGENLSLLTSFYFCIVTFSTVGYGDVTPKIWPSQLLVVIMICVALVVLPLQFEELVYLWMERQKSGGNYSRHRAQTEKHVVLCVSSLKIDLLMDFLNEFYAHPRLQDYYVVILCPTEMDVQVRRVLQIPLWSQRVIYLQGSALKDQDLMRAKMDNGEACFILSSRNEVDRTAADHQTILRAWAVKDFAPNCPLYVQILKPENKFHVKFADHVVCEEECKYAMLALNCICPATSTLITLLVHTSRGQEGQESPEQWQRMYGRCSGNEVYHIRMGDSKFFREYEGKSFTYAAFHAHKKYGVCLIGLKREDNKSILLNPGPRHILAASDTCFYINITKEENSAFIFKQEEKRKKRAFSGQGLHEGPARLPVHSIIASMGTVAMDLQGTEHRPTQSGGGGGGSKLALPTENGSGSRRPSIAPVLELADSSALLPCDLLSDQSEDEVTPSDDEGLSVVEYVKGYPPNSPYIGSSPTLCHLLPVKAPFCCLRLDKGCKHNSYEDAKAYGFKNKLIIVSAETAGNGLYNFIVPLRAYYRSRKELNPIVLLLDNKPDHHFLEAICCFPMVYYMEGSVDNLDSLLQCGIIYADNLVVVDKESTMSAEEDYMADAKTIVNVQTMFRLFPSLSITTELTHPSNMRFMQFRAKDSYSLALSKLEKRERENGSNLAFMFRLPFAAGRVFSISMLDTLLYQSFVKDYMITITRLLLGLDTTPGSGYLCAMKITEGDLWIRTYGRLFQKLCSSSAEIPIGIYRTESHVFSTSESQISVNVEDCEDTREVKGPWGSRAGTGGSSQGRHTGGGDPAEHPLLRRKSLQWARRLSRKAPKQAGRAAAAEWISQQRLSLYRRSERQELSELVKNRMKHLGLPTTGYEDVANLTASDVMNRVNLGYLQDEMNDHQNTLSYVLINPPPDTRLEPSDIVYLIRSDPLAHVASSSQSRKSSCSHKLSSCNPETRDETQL
The test is described as follows: KCNT1-WT-Basal patch clamp assay (SyncroPatch 384PE, HEK-TREX inducible cell line). It is filed as cell-based. To be noted: tetracycline inducible HEK-TREX cells; perforated patch; holding -80 mV, 100 ms step to 0 mV; room temperature; read-out: KCNT1 WB IC50. In outline:
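Tetracycline-inducible HEK-TREX cells, perforated patch (10 μM escin) on an automated system at room temperature, holding −80 mV with 100 ms steps to 0 mV. Mean step current over 3 sweeps gives % inhibition; Hill fit yields IC50, or % inhibition reported when below 50% at top concentration.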
Background: The patch-clamp technique gives a direct electrical read-out from membranes.
Consider `CS(=O)(=O)Nc1ccc(C(=O)NC2CCc3cc(F)ccc32)cc1` (single isomer, unassigned) [Compound II-59, N-[5-fluoroindan-1-yl]-4-(methanesulfonamido)benzamide], for which the half-maximal inhibitory concentration (IC50) was greater than 20 µM.

As for `CS(=O)(=O)N(CC(F)(F)F)c1ccc(C(=O)N[C@@H]2CCc3cc(Cl)ccc32)cc1` [Compound II-45], the IC50 was 1 to 20 µM.

With `CN(C)S(=O)(=O)Nc1ccc(C(=O)N[C@@H]2CCc3cc(Cl)ccc32)cc1` [Compound II-34], the half-inhibitory concentration (IC50) lay in the range of 1 to 20 µM.

For the molecule `O=C(N[C@H]1CCc2cc(Cl)ccc21)c1ccc(NS(=O)(=O)C2CC2)cc1` [Compound II-18, N-[(1S)-5-chloroindan-1-yl]-4-(cyclopropylsulfonylamino)benzamide], the IC50 was greater than 20 µM.

Consider `CN(C)CCN(c1ccc(C(=O)N[C@@H]2CCc3cc(Cl)ccc32)cc1)S(C)(=O)=O` [Compound II-44], for which the IC50 lay in the range of 1 to 20 µM.

Take `CN(c1ccc(C(=O)NC2CCc3cc(Cl)ccc32)cc1)S(C)(=O)=O` (single isomer, unassigned) [Compound II-2, N-(5-chloroindan-1-yl)-4-[methyl(methylsulfonyl)amino]benzamide]: the IC50 is no more than 1 µM.

Regarding `O=C(N[C@@H]1CCc2cc(Cl)ccc21)c1ccc(S(=O)(=O)N2CC[C@@H](O)C2)s1` [Compound I-40], the 50% inhibitory concentration (IC50) is no more than 1 µM.

By IC50 is commonly meant the concentration that inhibits the measured activity by half.
